Data: ChEMBL document CHEMBL4823252 (J Med Chem, 2021)
Blank lines part the entries; values can stand above or below the molecule they belong to. Calls of active or inactive are those of the source. The rule behind the calls is not given here.

Assays:
MV4-11 [1] = assay: Antitumor activity against human MV4-11 cells xenografted in mouse assessed as tumor growth inhibition at 5 mg/kg, po administered for 20 days measured once every 2 days relative to control; format: functional; conditions: MV4-11, po, 480 h, time 20 day, read-out: TGI
[2] = target: Vascular endothelial growth factor receptor 1 (Homo sapiens, UniProt P17948); assay: Inhibition of VEGFR1 (unknown origin) incubated for 30 mins in presence of ATP by mobility shift assay
Vascular endothelial growth factor receptor 1, sequence (P17948 whole entry): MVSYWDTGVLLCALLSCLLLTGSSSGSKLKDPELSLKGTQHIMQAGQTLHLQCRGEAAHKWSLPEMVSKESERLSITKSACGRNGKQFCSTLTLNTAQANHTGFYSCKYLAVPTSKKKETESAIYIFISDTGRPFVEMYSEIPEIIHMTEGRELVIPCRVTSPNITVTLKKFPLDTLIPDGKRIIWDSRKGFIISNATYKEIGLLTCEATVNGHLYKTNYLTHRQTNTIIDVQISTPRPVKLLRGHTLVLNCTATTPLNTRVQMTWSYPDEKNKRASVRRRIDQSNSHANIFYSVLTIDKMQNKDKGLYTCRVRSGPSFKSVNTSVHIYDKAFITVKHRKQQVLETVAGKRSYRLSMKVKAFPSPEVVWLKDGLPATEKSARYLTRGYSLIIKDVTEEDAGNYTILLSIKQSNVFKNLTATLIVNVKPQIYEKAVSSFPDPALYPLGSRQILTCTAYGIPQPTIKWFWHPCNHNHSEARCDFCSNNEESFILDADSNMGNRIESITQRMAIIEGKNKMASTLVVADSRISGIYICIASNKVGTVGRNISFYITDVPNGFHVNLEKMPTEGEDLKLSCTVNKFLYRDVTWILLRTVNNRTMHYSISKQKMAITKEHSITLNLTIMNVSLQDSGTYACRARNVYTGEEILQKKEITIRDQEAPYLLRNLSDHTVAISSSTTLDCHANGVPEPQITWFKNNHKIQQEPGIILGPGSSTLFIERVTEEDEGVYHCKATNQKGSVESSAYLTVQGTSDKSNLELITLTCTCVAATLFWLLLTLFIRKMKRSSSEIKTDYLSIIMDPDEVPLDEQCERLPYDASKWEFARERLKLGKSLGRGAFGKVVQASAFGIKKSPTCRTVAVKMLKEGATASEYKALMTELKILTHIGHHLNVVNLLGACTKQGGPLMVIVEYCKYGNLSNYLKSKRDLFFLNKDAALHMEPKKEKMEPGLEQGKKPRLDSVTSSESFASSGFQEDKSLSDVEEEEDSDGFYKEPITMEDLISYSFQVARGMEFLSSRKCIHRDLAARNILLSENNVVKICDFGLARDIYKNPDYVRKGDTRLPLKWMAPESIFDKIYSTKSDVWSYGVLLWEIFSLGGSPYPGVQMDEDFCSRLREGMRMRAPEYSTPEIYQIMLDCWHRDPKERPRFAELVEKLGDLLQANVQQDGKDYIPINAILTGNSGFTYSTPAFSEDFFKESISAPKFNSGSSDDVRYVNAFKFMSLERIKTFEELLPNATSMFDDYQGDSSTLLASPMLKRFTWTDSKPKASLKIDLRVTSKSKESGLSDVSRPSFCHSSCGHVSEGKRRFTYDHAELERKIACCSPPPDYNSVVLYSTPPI

[3] = target: Receptor-type tyrosine-protein kinase FLT3 (Homo sapiens) (UniProt P36888); assay: Inhibition of FLT3 in human MV4-11 cells assessed as suppression of autophosphorylation at tyr589/591 residue at 10 uM incubated for 2 hrs by Western blot analysis; format: cell-based; design: scale not given: the % may be the effect or the level left
[4] = AUC (0 to infinity) in Sprague-Dawley rat at 1 mg/kg, iv; format: ADME, organism-based; design: route intravenous, time infinity, dose 1 mg/kg; conditions: in vivo
MOLM-13 [5] = assay: Antitumor activity against human MOLM-13 cells xenografted in mouse assessed as tumor growth inhibition at 20 mg/kg, po administered for 16 days measured once every 2 days relative to control; format: functional; conditions: MOLM-13, po, 384 h, time 16 day, read-out: TGI
MOLM-13 [6] = assay: Antitumor activity against human MOLM-13 cells xenografted in po dosed mouse assessed as inhibition of tumor cell proliferation administered for 16 days measured once for every 2 days by Ki67 staining based immunohistochemical analysis; format: functional, organism-based; conditions: time 16.0 day
[7] = target: Receptor-type tyrosine-protein kinase FLT3 (Homo sapiens) (UniProt P36888); assay: Binding affinity to FLT3 (unknown origin) at 1000 nM relative to control
Mus musculus = assay: Induction of tumor recurrence mouse xenografted with human MOLM-13 cells at 10 to 40 mg/kg, po; format: functional, organism-based; conditions: dose 10-40 mg/kg
[8] = AUC (0 to infinity) in Sprague-Dawley rat at 10 mg/kg, po; format: ADME, organism-based; design: route oral, time infinity, dose 10 mg/kg; conditions: in vivo
[9] = Toxicity in mouse xenografted with human MV4-11 cells assessed as effect on liver at 2.5 to 10 mg/kg, po administered for 16 days by hematoxylin and eosin staining assay; format: organism-based; conditions: in vivo, 384 h, dose 2.5-10 mg/kg, time 16 day
HT-29 = assay: Antiproliferative activity against human HT-29 cells measured after 72 hrs by CCK8 assay; format: functional, cell-based; conditions: HT-29, 72 h
MOLM-13 [10] = assay: Induction of cell cycle arrest in human MOLM-13 cells assessed as accumulation at G2/M phase at 10 nM incubated for 24 hrs by flow cytometry (reference value: […]); format: functional
HepG2 = assay: Antiproliferative activity against human HepG2 cells measured after 72 hrs by CCK8 assay; format: functional, cell-based; conditions: HepG2, 72 h
MV4-11 [11] = assay: Induction of apoptosis in human MV4-11 cells assessed as late apoptotic cells at 100 nM incubated for 24 hrs by flow cytometry (reference value: 0.58%); format: functional
[12] = Toxicity in mouse xenografted with human MOLM-13 cells assessed as effect on heart at 10 to 40 mg/kg, po administered for 20 days by hematoxylin and eosin staining assay; format: organism-based; conditions: in vivo, 480 h, dose 10-40 mg/kg, time 20 day
MV4-11 [13] = assay: Induction of cell cycle arrest in human MV4-11 cells assessed as accumulation at sub-G1 phase at 100 nM incubated for 24 hrs by flow cytometry (reference value: […]%); format: functional
Homo sapiens = species: Homo sapiens; assay: Binding affinity to FLT3 ITD F691L mutant (unknown origin) at 1000 nM relative to control
[14] = system: Receptor-type tyrosine-protein kinase FLT3 (Homo sapiens), P36888 [D835Y]; assay: Binding affinity to FLT3 D835Y mutant (unknown origin) at 1000 nM relative to control
[15] = target: Receptor-type tyrosine-protein kinase FLT3 (Homo sapiens) (UniProt P36888); assay: Inhibition of FLT3 in human MV4-11 cells assessed as reduction in autophosphorylation at tyr589/591 residue incubated for 2 hrs by Western blot analysis; format: cell-based
[16] = Oral bioavailability in Sprague-Dawley rat at 10 mg/kg; format: ADME, organism-based; conditions: in vivo
MOLM-13 [17] = assay: Induction of cell cycle arrest in human MOLM-13 cells assessed as accumulation at G2/M phase at 100 nM incubated for 24 hrs by flow cytometry (reference value: […]); format: functional
THP-1 = assay: Antiproliferative activity against human THP-1 cells measured after 72 hrs by CCK8 assay; format: functional, cell-based; conditions: THP-1, 72 h
[18] = Toxicity in mouse xenografted with human MOLM-13 cells assessed as effect on spleen at 10 to 40 mg/kg, po administered for 20 days by hematoxylin and eosin staining assay; format: organism-based; conditions: in vivo, 480 h, dose 10-40 mg/kg, time 20 day
[19] = MRT (0 to last) in Sprague-Dawley rat at 10 mg/kg, po; format: ADME, organism-based; conditions: in vivo
MV4-11 [20] = assay: Induction of apoptosis in human MV4-11 cells incubated for 24 hrs by flow cytometry; format: functional, cell-based
[21] = target: Platelet-derived growth factor receptor beta (Homo sapiens, UniProt P09619); assay: Inhibition of PDGFRbeta (unknown origin) incubated for 30 mins in presence of ATP by mobility shift assay
Platelet-derived growth factor receptor beta, sequence (P09619 whole entry): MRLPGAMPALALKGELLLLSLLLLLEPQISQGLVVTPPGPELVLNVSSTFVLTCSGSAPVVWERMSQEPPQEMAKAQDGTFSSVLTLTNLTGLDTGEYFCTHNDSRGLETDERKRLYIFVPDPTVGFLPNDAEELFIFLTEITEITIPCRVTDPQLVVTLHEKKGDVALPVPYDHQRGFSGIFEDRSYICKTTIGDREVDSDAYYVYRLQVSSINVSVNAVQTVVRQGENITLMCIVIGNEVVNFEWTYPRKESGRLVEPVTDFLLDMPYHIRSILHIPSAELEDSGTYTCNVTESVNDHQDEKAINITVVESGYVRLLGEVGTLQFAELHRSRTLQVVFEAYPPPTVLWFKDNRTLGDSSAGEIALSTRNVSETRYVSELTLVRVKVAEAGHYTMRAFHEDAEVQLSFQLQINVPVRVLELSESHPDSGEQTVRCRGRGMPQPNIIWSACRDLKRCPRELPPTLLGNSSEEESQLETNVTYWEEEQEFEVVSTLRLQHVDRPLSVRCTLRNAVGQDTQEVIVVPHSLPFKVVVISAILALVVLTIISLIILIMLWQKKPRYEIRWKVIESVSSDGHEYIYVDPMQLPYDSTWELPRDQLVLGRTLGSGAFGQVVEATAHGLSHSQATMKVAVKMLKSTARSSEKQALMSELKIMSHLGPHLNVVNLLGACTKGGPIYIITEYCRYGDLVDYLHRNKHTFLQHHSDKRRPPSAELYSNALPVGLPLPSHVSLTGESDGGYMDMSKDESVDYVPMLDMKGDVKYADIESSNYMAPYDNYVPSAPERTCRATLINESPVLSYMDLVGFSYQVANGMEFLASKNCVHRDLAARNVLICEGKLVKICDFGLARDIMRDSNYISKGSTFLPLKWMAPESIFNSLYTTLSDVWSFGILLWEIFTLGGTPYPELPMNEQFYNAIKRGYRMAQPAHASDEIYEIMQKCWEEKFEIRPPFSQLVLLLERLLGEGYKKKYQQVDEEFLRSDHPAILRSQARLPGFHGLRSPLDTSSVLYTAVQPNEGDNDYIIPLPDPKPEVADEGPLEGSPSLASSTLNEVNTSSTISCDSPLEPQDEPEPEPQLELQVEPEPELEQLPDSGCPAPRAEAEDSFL

[22] = target: Receptor-type tyrosine-protein kinase FLT3 (Homo sapiens, UniProt P36888, D835Y); assay: Inhibition of FLT3 D835Y mutant (unknown origin) incubated for 30 mins in presence of ATP by mobility shift assay
[23] = Tmax in Sprague-Dawley rat at 10 mg/kg, po; format: ADME, organism-based; conditions: in vivo
[24] = MRT (0 to last) in Sprague-Dawley rat at 1 mg/kg, iv; format: ADME, organism-based; conditions: in vivo
MV4-11 [25] = assay: Antitumor activity against human MV4-11 cells xenografted in mouse assessed as tumor growth inhibition at 10 mg/kg, po administered for 20 days measured once every 2 days relative to control; format: functional; conditions: MV4-11, po, 480 h, time 20 day, read-out: TGI
HeLa = assay: Antiproliferative activity against human HeLa cells measured after 72 hrs by CCK8 assay; format: functional, cell-based
[26] = target: Receptor-type tyrosine-protein kinase FLT3 (Homo sapiens) (UniProt P36888); assay: Inhibition of FLT3 in human MOLM-13 cells assessed as reduction in autophosphorylation at tyr589/591 residue incubated for 2 hrs by Western blot analysis; format: cell-based
MDA-MB-231 = assay: Antiproliferative activity against human MDA-MB-231 cells measured after 72 hrs by CCK8 assay; format: functional, cell-based; conditions: MDA-MB-231, 72 h
[27] = Toxicity in mouse xenografted with human MV4-11 cells assessed as effect on spleen at 2.5 to 10 mg/kg, po administered for 16 days by hematoxylin and eosin staining assay; format: organism-based; conditions: in vivo, 384 h, dose 2.5-10 mg/kg, time 16 day
MOLM-13 [28] = assay: Antiproliferative activity against human sunitinib-resistant MOLM-13 cells at 12 nM incubated for 72 hrs by CCK8 assay relative to control; format: functional
[29] = AUC (0 to last) in Sprague-Dawley rat at 1 mg/kg, iv; format: ADME, organism-based; design: route intravenous, time 0 - last, dose 1 mg/kg; conditions: in vivo
[30] = system: Receptor-type tyrosine-protein kinase FLT3 (Homo sapiens), P36888 [R834Q]; assay: Binding affinity to FLT3 R834Q mutant (unknown origin) at 1000 nM relative to control
MV4-11 [31] = assay: Induction of cell cycle arrest in human MV4-11 cells assessed as accumulation at sub-G1 phase at 1 nM incubated for 24 hrs by flow cytometry (reference value: […]%); format: functional
MOLM-13 [32] = assay: Induction of apoptosis in human MOLM-13 cells assessed as early apoptotic cells at 1 nM incubated for 24 hrs by flow cytometry (reference value: 2.18%); format: functional

SMILES: CCN(CC)CCNC(=O)c1c(C)[nH]c(/C=C2\C(=O)Nc3ccc(F)cc32)c1C [SUNITINIB]
inhibition in vivo at 5 mg/kg (MV4-11 [1]): 29.9%

IC50 [2]: 120 nM | Activity [3]: 100% | AUC(0-inf) [4]: 2970 ng·h/mL | Activity [7]: Active | AUC(0-inf) [8]: 22700 ng·h/mL | IC50 (HT-29): 1540 nM | IC50 (HepG2): 1690 nM | Activity (Homo sapiens): Active | Activity [14]: Active | Activity [15]: Dose-Dependent Effect | bioavailability [16]: 73.6% | IC50 (THP-1): 3150 nM | MRT last [19]: 6.6 h | IC50 [21]: 41.8 nM | IC50 [22]: 1.9 nM | Tmax [23]: 2.7 h | MRT last [24]: 4 h | IC50 (HeLa): 1960 nM | Activity [26]: Dose-Dependent Effect | IC50 (MDA-MB-231): 1830 nM | AUC(0-t) [29]: 2880 ng·h/mL | Activity [30]: Active
SMILES: Cc1c(NC(=O)CCN2CCCC2)c[nH]c1/C=C1\C(=O)Nc2ccc(F)cc21
inhibition in vivo at 20 mg/kg (MOLM-13 [5]): 98% | Activity (MOLM-13 [6]): Dose-Dependent Effect | Activity (Mus musculus): inactive | Activity [9]: Non-Toxic | Activity (MOLM-13 [10]): 2.32% | Activity (MV4-11 [11]): 8.73% | Activity [12]: Non-Toxic | Activity (MV4-11 [13]): 30.54% | Activity (MOLM-13 [17]): 0.9% | Activity [18]: Non-Toxic | Activity (MV4-11 [20]): Dose-Dependent Effect | inhibition in vivo at 10 mg/kg (MV4-11 [25]): 93.4% | Activity [27]: Non-Toxic | Activity (MOLM-13 [28]): -2.6% | Activity (MV4-11 [31]): 13.92% | Activity (MOLM-13 [32]): 3.69%
